The results in this text go back to a melting point compilation (Tetko et al.; mined from patent text by program, amines drawn as free bases though some values may be those of a salt).

By melting point is commonly meant the temperature of the solid-liquid transition.

Compound `COCc1c(C(=O)OCCO)ncc2[nH]c3ccc(OCc4ccccc4)cc3c12` showed a melting point of 165 to 167 °C.
The figure for `O=C(Nc1cccc(C(F)(F)F)c1)C(=O)N1CCC(Cc2ccccc2)CC1` is 87 to 89 °C; for `O=C(O)CCCC(=O)N1C2CCC(C2)C1C(=O)O` (stereo not drawn) it is 155 to 159 °C; for `CC(C)(C)c1csc(-c2cc3cc(OCc4cccc(C#N)c4)ccc3o2)n1` it is 104 to 106 °C.
Consider `O=S(=O)(c1ccc(Nc2nccc(-c3ccc(C(F)(F)F)cc3)n2)cc1)N1CCOCC1`, for which the melting point fell in the range of 240 to 241 °C.
Turning to `CO/C=C(/C(=O)OC)c1cccnc1Oc1cccc(O)c1`, the melting point lay in the range of 163 to 165 °C.
On to `COc1ccc2cccc(CC#N)c2c1`, for which the melting point was determined as 83 °C.
The figure for `CN(C)c1ccnc(-c2ccncc2)n1` is 109 to 110 °C; for `CC[C@H](C)[C@H](Nc1nc2ccccc2c(=O)o1)C(=O)OC` it is 86 to 87 °C; for `CC12CCC3C(CCC4CC5OC5CC43C)C1CC(N1CCCC1)C2=O` (stereo not drawn) it is 146 °C.
The figure for `CC(=O)C1CCC2C3CCC4CC(O)C(N5CCOC(C)(C)C5)CC4(C)C3C(O)CC12C` (stereo not drawn) is 182 to 185 °C.
`CNC(=S)C1(c2ccc(Cl)nc2)CCCCC1=O` (stereo not drawn): the melting point fell in the range of 172 to 173 °C.
The figure for `O=C1N(Cc2cccnc2)c2ccccc2C12COc1ccc3nonc3c12` (stereo not drawn) is 230 to 232 °C.
The figure for `C=C(C)C(=O)Nc1cccc(OC(=O)Nc2ccccc2)c1` is 177 to 178 °C.
The figure for `O=[N+]([O-])C=Cc1cn(-c2ccccc2)c2ccccc12` is 154 to 155 °C; for `O=C1NC(=O)C2(c3cc(O)c(Cl)cc3F)CCCCC12` (stereo not drawn) it is 140 to 141 °C; for `COC(=O)CC(C#Cc1cccc(-c2noc(C)n2)c1)c1ccc(OC)c(OC2CCCC2)c1` (racemic) it is 66 to 68 °C.
In turn, `CCC(C)(C)N1CCNC(S(=O)(=O)Nc2ccc3[nH]c(C(=O)N4CCN(c5ncccc5NC(C)C)CC4)cc3c2)C1` (stereo not drawn) displayed a melting point of 158 to 160 °C.
`O=c1cc(C(F)(F)F)ccn1-c1c(Cl)cc(CO)cc1Cl` showed a melting point of 151 to 152 °C.
Compound `O=c1c(Cc2ccccc2)c(-c2ccccc2)oc2cc(OCC3CO3)ccc12` (stereo not drawn) showed a melting point of 133 to 138 °C.
The compound `ClC(Cl)(Cl)C1NCCO1` (stereo not drawn) displayed a melting point of 73 °C.
`CC(C)(C)C(=O)c1c[nH]c2ncc(-n3ccnc3)nc12` yielded a melting point of 215 to 217 °C.
The figure for `O=C(Nc1ccc(-n2ccnc2)cc1)Nc1ccc(C(F)(F)F)cc1` is 209 to 213 °C; for `N#Cc1c[nH]c2cc3ccccc3cc2c1=O` it is above 260 °C; for `NC(=O)c1nc(-c2cccc(O)c2)nc2c1[nH]c(=O)n2-c1ccc(Cl)cc1Cl` it is 375 to 377 °C.
As to `CCOC(=O)N1CCC(=C2c3ccc(Cl)cc3CCc3c(On4nnc5ccccc54)ccnc32)CC1`, the melting point lay in the range of 182 to 184 °C.
In turn, `O=C1c2cccc3c([N+](=O)[O-])c(O)cc(c23)C(=O)N1O` gave a melting point of 267 to 270 °C.
To `CN(C)C(=O)C1CC2CCC1c1[nH]c3ccccc3c12` (stereo not drawn) belongs 231 to 232 °C; to `COc1ccc(CC2C(=O)N(Cc3ccccc3)c3ccccc3N=C2C)cc1` (stereo not drawn), 136 to 137 °C; to `CC(O)CN(C)c1nnc2c3ccc(Cl)cc3c(-c3ccccc3)nn12` (stereo not drawn), 236 to 238 °C.
`CC(C)(C)OC(=O)N1C[C@@H](S)C[C@@H]1CN(C(=O)OC(C)(C)C)S(N)(=O)=O` gave a melting point of 90 to 91.5 °C.
`Cc1nn(C)c2c1N=C(c1ccc(-n3c(C)nc4cnccc43)cc1)C(C)C(=O)N2C` (stereo not drawn): the melting point was in the range of 222 to 225 °C.
In turn, `Cc1c(-c2ccccc2)oc2c(CNCCO)cccc2c1=O` yielded a melting point of 117 °C.
To `CC(c1oc2ccc(Br)cc2c(=O)c1-c1ccccc1)n1cnc2c(N)ncnc21` (stereo not drawn) belongs 230 to 231 °C; to `CC(=O)NCC1CN(c2ccc(N3CCN(C(=O)CCC(=O)c4ccc(CN5CCOCC5)cc4)CC3)c(F)c2)C(=O)O1` (stereo not drawn), 178 to 179 °C.
To `O=C(c1ccccc1)P1(=O)Oc2ccccc2-c2ccccc21` (stereo not drawn) belongs 134 to 135 °C; to `Nc1ccn(/C=C2/CC2(CO)CO)c(=O)n1`, 250 to 253 °C; to `CC(=O)c1ccc(C(=C2CC(C)(C)CC(C)(C)C2)c2ccc(O)cc2)cc1`, 195 to 196 °C.
To `CNS(=O)(=O)c1cc(OC)c(OC)c(C(=O)NCC2CCCN2CC2=CCCCC2)c1` (stereo not drawn) belongs 120 to 121 °C.
Consider `CC(C)c1cc2n(Cc3ccccc3)cc(C(=O)O)c(=O)n2n1`, for which the melting point lay in the range of 180 to 185 °C.
The figure for `CCOC(=O)C1n2c3ccccc3c3c4c(c5c6ccccc6n(c5c32)CS1(=O)=O)C(=O)NC4=O` (stereo not drawn) is 298 to 300 °C.
To `FC(F)(F)c1ccc2c(c1)C(c1ccccc1)=NCc1nncn1-2` belongs 258 to 260 °C; to `CC(=O)c1cc(-c2ccncc2)sc1Oc1ccccc1`, 103 to 105 °C.
To `CC1CC(=O)c2cc([N+](=O)[O-])cnc2C1` (stereo not drawn) belongs 64 to 67 °C; to `CC(C)(C)OC(=O)NCC1CN[C@@H]2CCO[C@H]12` (relative stereo), 59 to 67 °C; to `CCOC(=O)c1cn(-c2ccc(F)cc2F)c2nc(O)c(F)cc2c1=O`, 243 to 248 °C.
Regarding `CCc1ccc2[nH]c3cnn(C)c3c(=O)c2c1`, the melting point worked out at 266 °C.
To `CC(=O)Oc1cc(-c2ccccc2)ccc1C1(OC(C)=O)C(=O)c2ccccc2C1=O` belongs 165 to 167 °C.
The figure for `COc1ccc(C(=O)C=Cc2ccccc2[N+](=O)[O-])c(OC)c1OC` is 107 to 108 °C; for `O=C(O)C1=Cc2cc(Cl)c(Oc3cccc(Cl)c3)cc2OC1C(F)(F)F` (stereo not drawn) it is 174 to 176 °C; for `O=C1/C(=C(\NC2CCCCC2)c2ccccc2)Sc2ccccc21` it is 122 to 123 °C.
The figure for `Brc1cc(Br)cc(Cc2cccnc2)c1` is 70 to 72 °C.
As to `COc1cc2ncn([C@H](C)[C@](O)(Cn3cncn3)c3ccc(F)cc3F)c(=O)c2cc1OC`, the melting point fell in the range of 157 to 159 °C.
`COC(=O)C1(Cc2c[nH]c3ccccc23)CC(N=[N+]=[N-])C(=O)O1` (stereo not drawn) yielded a melting point of 110 to 112 °C.
`Cc1ccc(C(=O)C2=C(O)C(=O)N(c3ncc(S(=O)(=O)N4CCOCC4)s3)C2c2ccc(C(C)C)cc2)cc1` (stereo not drawn): the melting point lay in the range of 247 to 252 °C.
To `O=CCCCCC(c1cc(F)ccc1F)S(=O)(=O)c1ccc(Cl)cc1` (stereo not drawn) belongs 135 to 136 °C; to `CNC(=O)c1cccc(-c2cccc3cc(Cc4cccc(C(F)(F)F)c4)sc23)c1`, 104 to 106 °C; to `O=C(Nc1ccc(C(=O)N2CCCc3ccccc32)cc1)c1ccccc1`, 202 to 204 °C.
The figure for `Nc1nc(=O)n(C(=O)OCc2ccccc2)cc1F` is 212 to 215 °C; for `COc1ccc(Nc2ccc(Nc3ncnc4cc(-c5ccccc5)sc34)cc2)cc1OC` it is 160 to 161 °C.
The figure for `O=[N+]([O-])c1cnc2ccc(F)cc2c1Nc1ccccc1F` is 161 to 162 °C; for `O=c1[nH]cnc(C(F)(F)F)c1Br` it is 226 to 227 °C.
`CCc1cc(=O)c2nc(OC(C)C)c(Cl)cc2[nH]1` yielded a melting point of 231 to 235 °C.
`Cc1oc(-c2ccccc2)nc1COc1ccc(CCCC2OC(=O)NC2=O)cc1O` (stereo not drawn) registered a melting point of 162 to 164 °C.
`COc1cc(C(=O)N2CCN(C(=O)C3=Cc4ccc(OC)c(OC)c4CCC3)CC2)cc(OC)c1OC` showed a melting point of 133 to 134 °C.
Turning to `COc1ccc(Cl)c(C)c1OC`, the melting point fell in the range of 69 to 70 °C.
The figure for `COc1ccc2cccc(C=O)c2c1` is 61 to 63 °C; for `Cc1c(C)c(N)c2c(c1C)C(=O)C(C)(C)O2` it is 141 to 142 °C.
To `O=C(CCCOc1ccc2nc3[nH]c(=O)[nH]c3cc2c1)N1CCN(c2ccccc2)CC1` belongs 277 to 279 °C; to `CCc1noc(-c2cn(-c3ccccc3OCc3ccc(Cl)cc3)cn2)n1`, 88 to 89 °C.
Regarding `COc1ccc2c(c1)C(=O)Cc1c(Cl)cccc1S2`, the melting point lay within 117 to 120 °C.
To `O=C(CBr)c1ccc(OCc2ccccc2)c(CCOCc2ccccc2)c1` belongs 53 to 56 °C.
As to `COc1ccccc1CCl`, the melting point lay in the range of 69.5 to 70.5 °C.
To `COc1c(CCc2ccc(NS(C)(=O)=O)cc2)cc(N2CCC(=O)NC2=O)cc1C(C)(C)C` belongs 233 to 234 °C; to `CCOC(=O)C(C)(C)c1nsc2ccc([N+](=O)[O-])cc12`, 75 to 77 °C; to `N#Cc1ccc(Cn2cncc2CN2CCC3(CC2)C(=O)Nc2ccccc23)cc1`, 245 to 247 °C.
To `CC(=O)OCC(=O)c1ccc(-c2ccccc2)cc1` belongs 109 to 110 °C.
`COc1ccc(-c2csc(CC(=O)O)n2)cc1OC1CC2CCC1C2` (stereo not drawn) came in with a melting point of 190 to 191 °C.
To `Cc1ccc(-c2c(NS(=O)(=O)c3ccc(C(C)(C)C)cc3)nc(NCCO)nc2OCCOCc2ccccc2)cc1` belongs 124 to 126 °C.
To `CN1C(CO)=Cc2cc(S(N)(=O)=O)sc2S1(=O)=O` belongs 144 to 146 °C; to `C=CCOC(=O)c1cc(OCC=C)c(OCC=C)c(S(C)(=O)=O)c1`, 78 to 80 °C.
The compound `CC12C=CC(=O)C=C1C(Br)CC1C2CCC2(C)C(=O)CCC12` (stereo not drawn) showed a melting point of 188 to 190 °C.
To `NC1=NN(c2cccc(C(F)(F)F)c2)CC1` belongs 104 to 107 °C.
To `N#CCc1nc(C(=O)c2ccc(Cl)cc2)no1` belongs 81 to 84 °C; to `COc1ccc(C2c3c(C)c(NC(=O)CC(C)(C)C)c(C)c(C)c3OC2(C)C)cc1` (stereo not drawn), 175 to 176 °C.
The figure for `CC(C)c1cc(C(C)C)c(C(O)C(=O)c2ccc(C(C)C)c(OS(N)(=O)=O)c2C(C)C)c(C(C)C)c1` (stereo not drawn) is 96 to 101 °C; for `CCCc1nc(NC(C)=O)nc(N2CCOCC2)n1` it is 141 to 142 °C.
Compound `Cc1c(-c2ccc(-c3ccccc3F)cc2)nc2ccc(F)cc2c1C(=O)O` had a melting point of 315 to 317 °C.
